Series [1] concerns A549. As to the kind of experiment: Antiproliferative activity against human A549 cells at 50 ug/ml after 48 hrs by BrdUrd incorporation assay. The format is functional. The conditions noted are these: A549, 48 h, read-out: GI.
Series [2] deals with T47D. As to the kind of experiment: Antiproliferative activity against human T47D cells after 24 hrs by BrdUrd incorporation assay. It counts as functional, cell-based.
Series [3] has as its system HeLa. Put plainly: Antiproliferative activity against human HeLa cells at 50 ug/ml after 72 hrs by BrdUrd incorporation assay. It counts as functional. As to conditions: read-out: GI.
The subject of series [4] is Vero. As to the kind of experiment: Antiproliferative activity against African green monkey Vero cells after 24 hrs by BrdUrd incorporation assay. The format is cell-based. As to conditions: chlorocebus sabaeus.
The test system of series [5] is HeLa. As to the kind of experiment: Antiproliferative activity against human HeLa cells after 72 hrs by BrdUrd incorporation assay. The format is functional, cell-based.
The test system of series [6] is Vero. As to the kind of experiment: Antiproliferative activity against African green monkey Vero cells after 48 hrs by BrdUrd incorporation assay. It counts as cell-based. The conditions noted are these: Chlorocebus sabaeus.
For series [7], the system named is HeLa. Put plainly: Antiproliferative activity against human HeLa cells after 24 hrs by BrdUrd incorporation assay. It counts as functional, cell-based.
Series [8] can be described thus: Antiproliferative activity against African green monkey Vero cells at 50 ug/ml after 72 hrs by BrdUrd incorporation assay. The format is cell-based. The conditions noted are these: chlorocebus sabaeus, read-out: GI.
Series [9] has as its system A549. As to the kind of experiment: Antiproliferative activity against human A549 cells after 48 hrs by BrdUrd incorporation assay. The format is functional, cell-based. The conditions noted are these: A549, 48 h.
In series [10] the test system is HeLa. As to the kind of experiment: Antiproliferative activity against human HeLa cells at 50 ug/ml after 48 hrs by BrdUrd incorporation assay. As to conditions: read-out: GI. The format is functional.
Series [11] has as its system A549. Put plainly: Antiproliferative activity against human A549 cells after 72 hrs by BrdUrd incorporation assay. The format is functional, cell-based. The conditions noted are these: A549, 72 h.
In series [12] the test system is A549. As to the kind of experiment: Antiproliferative activity against human A549 cells after 24 hrs by BrdUrd incorporation assay. The format is functional, cell-based. The conditions noted are these: A549, 24 h.
In series [13] the test system is TOV112D. Put plainly: Antiproliferative activity against human TOV112D cells at 50 ug/ml after 48 hrs by BrdUrd incorporation assay. The format is functional. The conditions noted are these: read-out: GI.
The test system of series [14] is Vero. Put plainly: Antiproliferative activity against African green monkey Vero cells after 72 hrs by BrdUrd incorporation assay. The format is cell-based. The conditions noted are these: Chlorocebus sabaeus.
The subject of series [15] is T47D. Put plainly: Antiproliferative activity against human T47D cells at 50 ug/ml after 72 hrs by BrdUrd incorporation assay. The conditions noted are these: read-out: GI. It counts as functional.
Series [16] concerns TOV112D. As to the kind of experiment: Antiproliferative activity against human TOV112D cells at 50 ug/ml after 72 hrs by BrdUrd incorporation assay. It counts as functional. As to conditions: read-out: GI.
Series [17] deals with A549. As to the kind of experiment: Antiproliferative activity against human A549 cells at 50 ug/ml after 24 hrs by BrdUrd incorporation assay. As to conditions: A549, 24 h, read-out: GI. It counts as functional.
The test system of series [18] is T47D. Put plainly: Antiproliferative activity against human T47D cells at 50 ug/ml after 24 hrs by BrdUrd incorporation assay. It counts as functional. As to conditions: read-out: GI.
The test system of series [19] is HeLa. As to the kind of experiment: Antiproliferative activity against human HeLa cells after 48 hrs by BrdUrd incorporation assay. It counts as functional, cell-based.
In series [20] the test system is HeLa. As to the kind of experiment: Antiproliferative activity against human HeLa cells at 50 ug/ml after 24 hrs by BrdUrd incorporation assay. The conditions noted are these: read-out: GI. It counts as functional.
Series [21] deals with T47D. As to the kind of experiment: Antiproliferative activity against human T47D cells after 48 hrs by BrdUrd incorporation assay. It counts as functional, cell-based.
The subject of series [22] is T47D. Put plainly: Antiproliferative activity against human T47D cells after 72 hrs by BrdUrd incorporation assay. It counts as functional, cell-based.
Series [23] relates to TOV112D. As to the kind of experiment: Antiproliferative activity against human TOV112D cells after 48 hrs by BrdUrd incorporation assay. It counts as functional, cell-based.
The test system of series [24] is T47D. Put plainly: Antiproliferative activity against human T47D cells at 50 ug/ml after 48 hrs by BrdUrd incorporation assay. As to conditions: read-out: GI. The format is functional.
Series [25] concerns A549. Put plainly: Antiproliferative activity against human A549 cells at 50 ug/ml after 72 hrs by BrdUrd incorporation assay. The format is functional. The conditions noted are these: A549, 72 h, read-out: GI.
Series [26] can be described thus: Antiproliferative activity against African green monkey Vero cells at 50 ug/ml after 48 hrs by BrdUrd incorporation assay. As to conditions: chlorocebus sabaeus, read-out: GI. It counts as cell-based.
Series [27] deals with TOV112D. Put plainly: Antiproliferative activity against human TOV112D cells at 50 ug/ml after 24 hrs by BrdUrd incorporation assay. It counts as functional. The conditions noted are these: read-out: GI.
Series [28] concerns Vero. Put plainly: Antiproliferative activity against African green monkey Vero cells at 50 ug/ml after 24 hrs by BrdUrd incorporation assay. It counts as cell-based. As to conditions: chlorocebus sabaeus.
In series [29] the test system is TOV112D. As to the kind of experiment: Antiproliferative activity against human TOV112D cells after 72 hrs by BrdUrd incorporation assay. It counts as functional, cell-based.
The subject of series [30] is TOV112D. As to the kind of experiment: Antiproliferative activity against human TOV112D cells after 24 hrs by BrdUrd incorporation assay. The format is functional, cell-based.

From ChEMBL document CHEMBL3596165, “Synthesis, structure elucidation and identification of antiproliferative activities of a novel class of thiophene bioisosteres bearing the privileged 7,8-dihydroimidazo[2,1-c][1,2,4]triazin-4(6H)-one scaffold” (Bioorg Med Chem, 2015) come the findings set out here.

Each structure is given as a SMILES string. Bounds are passed on as bounds.

On to `Cc1cccc(N2CCn3c2nnc(-c2cccs2)c3=O)c1C`, for which the inhibition of growth at 50 µg/mL in the series with A549 [1] turned out to be 60%; with HeLa [3] it was 75%; in the series with HeLa [10], 65%; in the series on TOV112D [13] it was 75%; in the series with T47D [15], 100%; with TOV112D [16] it was 95%. In addition, the inhibition of growth at 50 µg/mL was found to be 45% in the series with A549 [17]; 90% in the series on T47D [18]; 50% in the series on HeLa [20]; 100% with T47D [24]; 90% in the series on A549 [25]; 40% in the series with TOV112D [27]. Besides, the IC50 is 90 µM in the series with T47D [2]; > 150 µM in the series with Vero [4]; 100 µM in the series with HeLa [5]; 140 µM in the series on Vero [6]; 150 µM in the series on HeLa [7]; 130 µM in the series on A549 [9]. Further, the IC50 with A549 [11] was 90 µM; in the series with A549 [12], > 150 µM; with Vero [14], 90 µM; in the series with HeLa [19], 120 µM; with T47D [21], 80 µM; in the series with T47D [22], 80 µM. For the same compound, the IC50 in the series on TOV112D [23] was 100 µM; with TOV112D [29], 80 µM; in the series on TOV112D [30], > 150 µM. Also, the inhibition at 72 h, 50 ug/ml in series [8] is 90%. The inhibition at 48 h, 50 ug/ml in series [26] was 55%. The “growth inhibition (GI)” value with Vero [28] is reported as 25%.

`O=c1c(-c2cccs2)nnc2n1CCN2c1ccccc1Cl`: the inhibition of growth at 50 µg/mL with A549 [1] is 95%; with HeLa [3], 90%; in the series on HeLa [10] it was 80%; with TOV112D [13], 95%; in the series on T47D [15], 100%; with TOV112D [16], 100%. Moreover, the inhibition of growth at 50 µg/mL amounted to 75% with A549 [17]; 95% in the series with T47D [18]; 50% in the series with HeLa [20]; 100% in the series with T47D [24]; 95% in the series with A549 [25]; 80% in the series with TOV112D [27]. For the same compound, the IC50 in the series on T47D [2] was 80 µM; with Vero [4] it was 150 µM; with HeLa [5], 80 µM; in the series on Vero [6] it was 130 µM; in the series with HeLa [7], 150 µM; in the series with A549 [9], 80 µM. The IC50 in the series on A549 [11] was 80 µM; with A549 [12], 100 µM; with Vero [14] it was 100 µM; in the series with HeLa [19], 90 µM; with T47D [21], 80 µM; with T47D [22] it was 80 µM. The IC50 came out at 80 µM in the series with TOV112D [23], 80 µM with TOV112D [29] and 90 µM with TOV112D [30]. Besides, in series [8], the inhibition at 72 h, 50 ug/ml stood at 75%. Besides, the inhibition at 48 h, 50 ug/ml in series [26] was found to be 60%. Besides, the “growth inhibition (GI)” value in the series with Vero [28] was found to be 50%.

With `Cc1ccc(N2CCn3c2nnc(-c2cccs2)c3=O)cc1`, the inhibition of growth at 50 µg/mL in the series with A549 [1] was determined as 95%; in the series with HeLa [3], 100%; in the series on HeLa [10] it was 100%; in the series on TOV112D [13], 100%; with T47D [15], 100%; in the series with TOV112D [16], 100%. The inhibition of growth at 50 µg/mL in the series with A549 [17] came out at 90%; in the series on T47D [18] it was 95%; with HeLa [20], 80%; in the series on T47D [24] it was 100%; in the series on A549 [25], 100%; with TOV112D [27], 90%. Moreover, the IC50 in the series with T47D [2] was 90 µM; in the series with Vero [4], 90 µM; in the series with HeLa [5] it was 80 µM; with Vero [6], 80 µM; with HeLa [7], 100 µM; in the series with A549 [9], 90 µM. Also, the IC50 in the series with A549 [11] is 80 µM; with A549 [12], 90 µM; in the series with Vero [14], 80 µM; in the series on HeLa [19], 80 µM; with T47D [21] it was 80 µM; with T47D [22], 80 µM. Besides, the results for the IC50 with TOV112D [23], in the series with TOV112D [29] and in the series on TOV112D [30] were 80 µM, 80 µM and 90 µM, respectively. Besides, in [8], the inhibition at 72 h, 50 ug/ml came out at 100%. Further, the inhibition at 48 h, 50 ug/ml in series [26] was 95%. Besides, the “growth inhibition (GI)” value in the series on Vero [28] is recorded as 90%.

For `Cc1ccccc1N1CCn2c1nnc(-c1ccco1)c2=O`, the inhibition of growth at 50 µg/mL was 50% with HeLa [3]; 25% in the series with HeLa [10]; 75% in the series with T47D [15]; 25% in the series with T47D [18]; 25% in the series on HeLa [20]; 50% in the series with T47D [24].

Consider `COc1ccccc1N1CCn2c1nnc(-c1ccco1)c2=O`, for which the inhibition of growth at 50 µg/mL in the series on HeLa [3] turned out to be 80%; with HeLa [10], 35%; in the series on T47D [15], 70%; in the series with T47D [18], 0%; in the series on HeLa [20] it was 25%; in the series with T47D [24] it was 30%.

`O=c1c(-c2ccco2)nnc2n1CCN2c1ccccc1Cl`: the inhibition of growth at 50 µg/mL in the series with HeLa [3] was found to be 100%; in the series on HeLa [10], 80%; in the series with T47D [15] it was 25%; in the series with T47D [18] it was 5%; in the series on HeLa [20], 80%; with T47D [24], 15%.
